The values that follow come from patent US20160193206A1, “BET-PROTEIN-INHIBITING DIHYDROPYRIDOPYRAZINONES” (BAYER PHARMA AKTIENGESELLSCHAFT, priority 2012, published 2016).

The target of test [1] is T1, BRD4 bromo domain 2 [BRD4(2)] (Homo sapiens, UniProt O60885).
T1 construct: N-terminally His6-tagged BRD4(2) (amino acids 357-445); made in house; host or cells: E. coli
In words: BRD4(2)/acetylated peptide H4 binding assay (TR-FRET). The following applies: inhibition of interaction between His6-tagged BRD4(2) (amino acids 357-445) and acetylated histone H4 peptide. An excerpt: (§1) Protein-Protein Interaction Assay: BRD4/Acetylated Peptide H4 Binding Assay
2. Assay Description for BRD4 Bromo Domain 2 [BRD4(2)]
To assess the BRD4(2) binding strength of the substances described in this application, the ability thereof to inhibit the interaction between BRD4(2) and acetylated histone H4 in a dose-dependent manner was quantified.
(§2) For this purpose, a time-resolved fluorescence resonance energy transfer (TR-FRET) assay was used, which measures the binding between N-terminally His6-tagged BRD4(2) (amino acids 357-445) and a synthetic acetylated histone H4 (Ac-H4) peptide with sequence SGRGK(Ac)GGK(Ac)GLGK(Ac)GGAK(Ac)RHRKVLRDNGSGSK-biotin. The recombinant BRD4(2) protein produced in-house according to Filippakopoulos et al., Cell, 2012, 149:214-231 was expressed in E. coli and purified by means of (Ni-NTA) affinity and (Sephadex G-75) size exclusion chromatography. The Ac-H4 peptide can be purchased, for example, from Biosyntan (Berlin, Germany).
(§3) In the assay, typically 11 different concentrations of each substance (0.1 nM, 0.33 nM, 1.1 nM, 3.8 nM, 13 nM, 44 nM, 0.15 μM, 0.51 μM, 1.7 μM, 5.9 μM and 20 μM) were analysed as duplicates on the same microtitre plate. For this purpose, 100-fold concentrated solutions in DMSO were prepared by serial dilutions (1:3.4) of a 2 mM stock solution into a clear, 384-well microtitre plate (Greiner Bio-One, Frickenhausen, Germany). From this, 50 nl were transferred into a black test plate (Greiner Bio-One, Frickenhausen, Germany). The test was started by the addition of 2 μl of a 2.5-fold concentrated BRD4(2) solution (final concentration typically 100 nM in the 5 μl of reaction volume) in aqueous assay buffer [50 mM HEPES pH 7.5, 50 mM sodium chloride (NaCl); 50 mM potassium fluoride (KF); 0.25 mM CHAPS and 0.05% serum albumin (BSA)] to the substances in the test plate. This was followed by a 10-minute incubation step at 22° C. for the pre-equilibration of putative complexes between BRD4(2) and the substances.
(§4) The mixture was then incubated in the dark at 22° C. for one hour and then at 4° C. for at least 3 hours and for no longer than overnight. The formation of BRD4(2)/Ac-H4 complexes was determined by the measurement of the resonance energy transfer from the streptavidin-Eu chelate to the anti-6His-XL665 antibody present in the reaction. For this purpose, the fluorescence emission was measured at 620 nm and 665 nm after excitation at 330-350 nm in a TR-FRET measuring instrument, for example a Rubystar or Pherastar (both from BMG Lab Technologies, Offenburg, Germany) or a Viewlux (Perkin-Elmer). The ratio of the emissions at 665 nm and at 622 nm was taken as an indicator of the amount of BRD4(2)/Ac-H4 complexes formed.
The data (ratios) obtained were normalized, with 0% inhibition corresponding to the mean from the measurements for a set of controls (typically 32 data points) in which all the reagents were present. In these, in place of test substances, 50 nl of DMSO (100%) were used. Inhibition of 100% corresponded to the mean from the measurements for a set of controls (typically 32 data points) in which all the reagents except BRD4(2) were present. The IC50 was determined by regression analysis based on a 4-parameter equation (minimum, maximum, IC50, Hill; Y=max+(min−max)/(1+(X/IC50)Hill).
A general note: In TR-FRET formats the signal depends on donor and acceptor labels being close together.

Test [2] concerns the target T2, BRD4 bromo domain 1 [BRD4(1)] (Homo sapiens, UniProt O60885).
T2 construct: N-terminally His6-tagged BRD4(1) (amino acids 67-152); made in house; host or cells: E. coli
The test can be described thus: BRD4(1)/acetylated peptide H4 binding assay (TR-FRET). The following applies: inhibition of interaction between His6-tagged BRD4(1) (amino acids 67-152) and acetylated histone H4 peptide.
Source text: as §1
1. Assay Description for BRD4 Bromo Domain 1 [BRD4(1)]
To assess the BRD4(1) binding strength of the substances described in this application, the ability thereof to inhibit the interaction between BRD4(1) and acetylated histone H4 in a dose-dependent manner was quantified.
as §2, with “BRD4(1)” for “BRD4(2)”, “67-152)” for “357-445)”, “GRGK(Ac)GGK(Ac)GLGK(Ac)GGAK(Ac)RHGSGSK-biotin.” for “SGRGK(Ac)GGK(Ac)GLGK(Ac)GGAK(Ac)RHRKVLRDNGSGSK-biotin.”
as §3, with “concentrated BRD4(1)” for “concentrated BRD4(2)”, “typically 10” for “typically 100”, “chloride (NaCl),” for “chloride (NaCl); 50 mM potassium fluoride (KF);”, “between BRD4(1)” for “between BRD4(2)”
as §4, with “BRD4(1)/Ac-H4” for “BRD4(2)/Ac-H4”, “cryptate” for “chelate”
The data (ratios) obtained were normalized, with 0% inhibition corresponding to the mean from the measurements for a set of controls (typically 32 data points) in which all the reagents were present. In these, in place of test substances, 50 nl of DMSO (100%) were used. Inhibition of 100% corresponded to the mean from the measurements for a set of controls (typically 32 data points) in which all the reagents except BRD4(1) were present. The IC50 was determined by regression analysis based on a 4-parameter equation (minimum, maximum, IC50, Hill; Y=max+(min−max)/(1+(X/IC50)Hill).

A word on the IC50: it is the concentration at which inhibition is half-maximal. On to `COc1cc(C(=O)N2CCN(C(C)C)CC2)ccc1Nc1ccc2c(n1)N(C1CCCCCC1)[C@H](C)C(=O)N2C` [Example 40, (3R)-4-Cycloheptyl-6-[(2-methoxy-4-{[4-(propan-2-yl)piperazin-1-yl]carbonyl}phenyl)amino]-1,3-dimethyl-3,4-dihydropyrido[2,3-b]pyrazin-2(1H)-one], for which the IC50 in test [1] was 161 nM; in test [2] it was 295 nM.
The matching figures for `COc1cc(C(=O)N2CCC(F)CC2)ccc1Nc1ccc2c(n1)N(Cc1ccccc1)[C@H](C)C(=O)N2C` [Example 43, (3R)-4-Benzyl-6-({4-[(4-fluoropiperidin-1-yl)carbonyl]-2-methoxyphenyl}amino)-1,3-dimethyl-3,4-dihydropyrido[2,3-b]pyrazin-2(1H)-one]: 102 nM and 218 nM.
On to `C[C@@H]1C(=O)N(C)c2ccc(Nc3ccc(C(=O)N[C@H]4CC[C@H](N5CCN(CC6CC6)CC5)CC4)cc3)nc2N1C1CCCCCC1` [Example 44, 4-{[(3R)-4-Cycloheptyl-1,3-dimethyl-2-oxo-1,2,3,4-tetrahydropyrido[2,3-b]pyrazin-6-yl]amino}-N-{trans-4-[4-(cyclopropylmethyl)piperazin-1-yl]cyclohexyl}benzamide], for which the IC50 was 283 nM in test [1] and 368 nM in test [2].
For `COc1cc(C(=O)NCc2ccccn2)ccc1Nc1ccc2c(n1)N(C1CCOCC1)[C@H](C)C(=O)N2C` [Example 47, 4-{[(3R)-1,3-Dimethyl-2-oxo-4-(tetrahydro-2H-pyran-4-yl)-1,2,3,4-tetrahydropyrido[2,3-b]pyrazin-6-yl]amino}-3-methoxy-N-(pyridin-2-ylmethyl)benzamide], the half-inhibitory concentration (IC50) in test [1] turned out to be 112 nM; in test [2], 201 nM.
For the compound `C[C@@H]1C(=O)N(C)c2ccc(Nc3ccc(C(=O)NCCc4cccnc4)cc3)nc2N1C1CCOCC1` [Example 49, 4-{[(3R)-1,3-Dimethyl-2-oxo-4-(tetrahydro-2H-pyran-4-yl)-1,2,3,4-tetrahydropyrido[2,3-b]pyrazin-6-yl]amino}-N-[2-(pyridin-3-yl)ethyl]benzamide], the IC50 in test [1] is 317 nM; in test [2], 114 nM.
For the compound `C[C@@H]1C(=O)N(C)c2ccc(Nc3ccc(C(=O)NC4CCC(N5CCC(F)(F)CC5)CC4)cc3)nc2N1C1CCOCC1` (stereo partly drawn) [Example 52], the figures for the IC50 in test [1] and in test [2] were 299 nM and 166 nM, respectively.
The matching figures for `Cc1cc(C(=O)NC2CCN(C)CC2)ccc1Nc1ccc2c(n1)N(C1CCOCC1)[C@H](C)C(=O)N2C` [Example 54, 4-{[(3R)-1,3-Dimethyl-2-oxo-4-(tetrahydro-2H-pyran-4-yl)-1,2,3,4-tetrahydropyrido[2,3-b]pyrazin-6-yl]amino}-3-methyl-N-(1-methylpiperidin-4-yl)benzamide]: 354 nM and 357 nM.
On to `C[C@@H]1C(=O)N(C)c2ccc(Nc3ccc(C(=O)N4CCN(C)CC4)cc3)nc2N1C1CCOCC1` [Example 56, (3R)-1,3-Dimethyl-6-({4-[(4-methylpiperazin-1-yl)carbonyl]phenyl}amino)-4-(tetrahydro-2H-pyran-4-yl)-3,4-dihydropyrido[2,3-b]pyrazin-2(1H)-one], for which the IC50 in test [1] was 242 nM; in test [2], 139 nM.
In the same order, the values of `COc1cc(C(=O)N[C@H]2CC[C@H](NC(=O)OC(C)(C)C)CC2)ccc1Nc1ccc2c(n1)N(C1CCOCC1)[C@H](C)C(=O)N2C` [Example 59, tert-Butyl {trans-4-[(4-{[(3R)-1,3-dimethyl-2-oxo-4-(tetrahydro-2H-pyran-4-yl)-1,2,3,4-tetrahydropyrido[2,3-b]pyrazin-6-yl]amino}-3-methoxybenzoyl)amino]cyclohexyl}carbamate] are 323 nM and 533 nM.
Turning to `COc1cc(C(=O)NC2CCC(O)CC2)ccc1Nc1ccc2c(n1)N(C1CCOCC1)[C@H](C)C(=O)N2C` (stereo partly drawn) [Example 60, 4-{[(3R)-1,3-Dimethyl-2-oxo-4-(tetrahydro-2H-pyran-4-yl)-1,2,3,4-tetrahydropyrido[2,3-b]pyrazin-6-yl]amino}-N-(4-hydroxycyclohexyl)-3-methoxybenzamide], the results for the IC50 in test [1] and in test [2] were 212 nM and 339 nM, respectively.
The matching figures for `Cc1cc(C(=O)NCCN(C)C)ccc1Nc1ccc2c(n1)N(C1CCOCC1)[C@H](C)C(=O)N2C` [Example 63, N-[2-(Dimethylamino)ethyl]-4-{[(3R)-1,3-dimethyl-2-oxo-4-(tetrahydro-2H-pyran-4-yl)-1,2,3,4-tetrahydropyrido[2,3-b]pyrazin-6-yl]amino}-3-methylbenzamide]: 206 nM and 262 nM.
Turning to `COc1cc(C(=O)N2CCN(C3CC3)CC2)ccc1Nc1ccc2c(n1)N(C1CCOCC1)[C@H](C)C(=O)N2C` [Example 65, (3R)-6-({4-[(4-Cyclopropylpiperazin-1-yl)carbonyl]-2-methoxyphenyl}amino)-1,3-dimethyl-4-(tetrahydro-2H-pyran-4-yl)-3,4-dihydropyrido[2,3-b]pyrazin-2(1H)-one], the figures for the half-maximal inhibitory concentration (IC50) in test [1] and in test [2] were 120 nM and 234 nM, respectively.
